Measurements taken from patent publication US12570694B2, “Peptides and pharmaceutical, nutraceutical or veterinary compositions for hair loss prevention and/or treatment” (VYTRUS BIOTECH, S.L., priority 2016, dated 2026).
Several values for one entry are separate records, joined by “and”; a condition that tells them apart may be missing. Identical values can stand only once.

Columns and labels:
[1] = test system: males and females with hair-loss problems; assay: In vivo test: combing test (number of hair lost during combing) in volunteers; design: species or system human
Method: Curcuma longa cell-free supernatant prepared as indicated in Example 2, as well as the peptide of SEQ ID NO: 6 in the PBS buffered fortifying solution 2× disclosed in Example 1 were tested in males and females (n=60, from 18 to 60 years old) with hair-loss problems. There were excluded those volunteers that received a capillary treatment three months before the assay, volunteers with cutanic pathologies at scalp (psoriasis, dermatitis, etc.) and allergy to compounds in the formulations.
Tested compounds were daily applied.
At time 0 (T0) there were taken scalp pictures (frontal and occipital parts), trichograms for determining the hair phase cycle (telogen or anagen phase), the combing test (number of hair lost during combing), and capillary density by microphotography with Trichoscan®.
At t=45 days and t=90 days, there were performed the combing test and the density tests (Trichoscan®)
At t=150 days again as in t=0.
Volunteers were separated in three groups. Group 1 receiving SEQ ID NO: 6 in the PBS buffered fortifying solution 2× disclosed in Example 1; Group 2 receiving Curcuma longa cell-free supernatant prepared as indicated in Example 2, and Group 3 the placebo.
In particular, this table includes the average values determined for combing test (number of hair lost during combing). From the combing test results at t=0, t=45 and t=90 the percentage of reduction of hair loss is calculated contrasting values of t=0 with the values at t=45 and at t=90.

[2] = test system: human hair follicle papilla cells (HFDPC); assay: In vitro proliferation of hair follicle dermal papilla cells (BrdU incorporation); assay type: cell-based
Method: In order to test the effects of the cell-free supernatants, as well as of the peptides of the invention, a proliferation assay was conducted onto human hair follicle papilla cells (CELL APPLICATIONS, INC; Normal human hair follicles from temporal scalp. Single donor: Ref. 602-05a. Lot. 2092.).
The culture media was a Papilla Cell Basal Medium supplemented with the Growth Supplements kit (Relative composition: Fetal bovine serum, growth factors and antibiotics. Application: 6% v/v).
HFDPC proliferation was assessed determining the proliferation index (%). Cell DNA replication was quantified by means of incorporated bromodeoxiuridine (BrdU) into DNA of treated cells. BrdU assay allows measuring cell proliferation based on cell capability of incorporating BrdU during S-phase of the cell cycle. Cells being divided incorporated BrdU that is further detected by means of antibodies and immunocytochemistry detection.
Cells were seeded at confluence in a 96-well plate. After stabilization and synchronization of cell cultures the tested products were added (at the final concentration indicated in Table 1 of Examples. After that, BrdU was added to cultures and HFDPC were incubated at 37° C. until complete BrdU incorporation. BrdU amounts were proportional to the number of cell divisions and thus to the growth of the treated culture.
Data are depicted in FIG. 1, FIG. 2 and FIG. 3, wherein it is shown the proliferation index (%) of HFDPC, calculated as the percentage of growing in relation to the basal control (non-treated HFDPC) which is accorded a 100% value of proliferation index.

[3] = group mean, combing test, minimal and maximal values not considered
[4] = individual volunteers, negative = fewer hairs lost

Substance: CH3—C(O)—YIYT-NH2 (Ac-YIYT-NH2) [SEQ ID NO: 6, in vivo: dissolved 0.025% w/w in PBS buffered fortifying solution 2×]
- reduction of the % of hair loss (in words) ([1]; T45, T90 and T150 compared with T0): meaningful reduction of the % of hair loss
- % REDUCTION OF HAIR LOSS T0 vs. T150, Mean [1, 3]: 68.15%
- % hair-loss reduction t = 0 vs t = 45, mean [1, 3]: 40.48%
- % hair-loss reduction t = 0 vs t = 90, mean [1, 3]: 39.72%
- COMBING TEST T45 ([1]; individual volunteers, number of hair lost during combing, day 45): 7 and 54 and 23 and 13 and 88 and 184 and 34 and 58 and 60 and 62 and 50 and 10 and 31 and 28 and 101 and 66 and 24 and 14 and 46 and 92
- COMBING TEST T90 ([1]; individual volunteers, number of hair lost during combing, day 90): 6 and 88 and 28 (2×) and 36 and 154 and 60 and 50 and 61 and 84 and 27 and 12 and 45 and 118 and 91 and 23 and 22 and 59 and 62
- COMBING TEST T150 ([1]; individual volunteers, number of hair lost during combing, day 150): 5 and 13 (2×) and 19 (2×) and 22 and 24 and 18 and 12 and 20 (3×) and 23 and 29 and 95 and 42 and 167 and 16 and 36
- % REDUCTION OF HAIR LOSS T0 VS. T45 [1, 4]: −86.27% and −55.74% and −46.51% and −69.05% and 72.55% and 183.08(*) % and −43.33% and −44.23% and −47.83% and −78.32% and −30.56% and −98.13(*) % and −36.73% and −68.54% and −31.29% and −67.00% and −22.58% and −64.10% and −42.50% and 33.33%
- % REDUCTION OF HAIR LOSS T0 VS. T90 [1, 4]: −88.24% and −27.87% and −34.88% and −33.33% and −29.41% and 136.92(*) % and 0.00% and −51.92% and −46.96% and −70.63% and −62.50% and −97.76(*) % and −49.44% and −19.73% and −54.50% and −25.81% and −43.59% and −26.25% and −10.14%
- % REDUCTION OF HAIR LOSS T0 vs. T150 [1, 4]: −90.20% and −89.34% and −69.77% and −54.76% and −56.86% and −63.08% and −70.00% and −88.46% and −82.61% and −91.96(*) % and −59.72% and −82.24% and −78.65% and −71.43% and −16.50% and −35.48(*) % and −58.97% and −55.00% and −71.01%
- proliferation index of HFDPC ([2]; FIG. 1, relative to basal control (non-treated HFDPC) = 100%, concentrations C1/C2 of Table 1): showed the best results
- proliferation index of HFDPC ([2]; FIGS. 2 and 3, peptides with or without end-terminal modifications at 5.86, 2.93, 1.46 μg/ml, basal control = 100%): can promote cell proliferation
